Test results as given in patent US9113629B2, “4-amino-6-(4-substituted-phenyl)-picolinates and 6-amino-2-(4-substituted-phenyl)-pyrimidine-4-carboxylates and their use as herbicides” (DOW AGROSCIENCES LLC, priority 2013, dated 2015).
Read-outs that look alike come from different tables or passages of the source.

How the values were obtained:
[1] = system: Key Broadleaf Weed and Crop Species; assay: Post-emergent Test II herbicidal activity (Table 5); assay type: in vivo; details: post-emergence, 336 h, post-emergent, 14 days after application; for pest or weed control at 140 g/ha: 140 g ai/ha; for pest or weed control at 70 g/ha: 70 g ai/ha
Experimental: (§1) Post-emergent Test II: Seeds or nutlets of the desired test plant species were planted in Sun Gro Metro-Mix® 360 planting mixture, which typically has a pH of 6.0 to 6.8 and an organic matter content of about 30 percent, in plastic pots with a surface area of 64 square centimeters. When required to ensure good germination and healthy plants, a fungicide treatment and/or other chemical or physical treatment was applied. The plants were grown for 7-21 d in a greenhouse with an approximate 15 h photoperiod which was maintained at about 23-29° C. during the day and 22-28° C. during the night. Nutrients and water were added on a regular basis and supplemental lighting was provided with overhead metal halide 1000-Watt lamps as necessary. The plants were employed for testing when they reached the first or second true leaf stage.
(§2) A weighed amount, determined by the highest rate to be tested, of each test compound was placed in a 25 mL glass vial and was dissolved in 4 mL of a 97:3 v/v mixture of acetone and DMSO to obtain concentrated stock solutions. […] The concentrated stock solutions obtained were diluted with 20 mL of an aqueous mixture containing acetone, water, isopropyl alcohol, DMSO. Atplus 411F crop oil concentrate, and Triton® X-155 surfactant in a 48.5:39:10:1.5:1.0:0.02 v/v ratio to obtain spray solutions containing the highest application rates. Additional application rates were obtained by serial dilution of 12 mL of the high rate solution into a solution containing 2 mL of 97:3 v/v mixture of acetone and DMSO and 10 mL of an aqueous mixture containing acetone, water, isopropyl alcohol, DMSO, Atplus 411F crop oil concentrate, and Triton X-155 surfactant in a 48.5:39:10:1.5:1.0:0.02 v/v ratio to obtain ½×, ¼×, ⅛× and 1/16× rates of the high rate. Compound requirements are based upon a 12 mL application volume at a rate of 187 liters per hectare (L/ha). Formulated compounds were applied to the plant material with an overhead Mandel track sprayer equipped with 8002E nozzles calibrated to deliver 187 L/ha over an application area of 0.503 square meters at a spray height of 18 inches (43 cm) above the average plant canopy height. Control plants were sprayed in the same manner with the solvent blank.
(§3) The treated plants and control plants were placed in a greenhouse as described above and watered by subirrigation to prevent wash-off of the test compounds. After 14 d, the condition of the test plants as compared with that of the untreated plants was determined visually and scored on a scale of 0 to 100 percent where 0 corresponds to no injury and 100 corresponds to complete kill.

[2] = system: Key Grass and Sedge Weeds as well as Grass Crops; assay: Post-emergent Test II herbicidal activity (Table 6); assay type: in vivo; details: post-emergence, 336 h; for pest or weed control at 140 g/ha: application rate 140 g ai/ha; for pest or weed control at 70 g/ha: application rate 70 g ai/ha
Experimental: as §1, §2, §3

[3] = ABUTH: velvetleaf (Abutilon theophrasti), read-out: Visual Growth Reduction (%) 14 Days After Application ABUTH
[4] = AMARE: redroot pigweed (Amaranthus retroflexus), read-out: Visual Growth Reduction (%) 14 Days After Application AMARE
[5] = BRSNN: oilseed-rape, canola (Brassica napus), read-out: Visual Growth Reduction (%) 14 Days After Application BRSNN
[6] = CHEAL: lambsquarters (Chenopodium album), read-out: Visual Growth Reduction (%) 14 Days After Application CHEAL
[7] = EPHHL: wild poinsettia (Euphorbia heterophylla), read-out: Visual Growth Reduction (%) 14 Days After Application EPHHL
[8] = HELAN: sunflower (Helianthus annuus), read-out: Visual Growth Reduction (%) 14 Days After Application HELAN
[9] = VIOTR: wild pansy (Viola tricolor), read-out: Visual Growth Reduction (%) 14 Days After Application VIOTR
[10] = Triticum aestivum, TRZSS (wheat), read-out: Visual Growth Reduction (%) 14 Days After Application, TRZSS
[11] = CYPES: yellow nutsedge (Cyperus esculentus), read-out: Visual Growth Reduction (%) 14 Days After Application, CYPES
[12] = DIGSA: crabgrass (Digitaria sanguinalis), read-out: Visual Growth Reduction (%) 14 Days After Application, DIGSA
[13] = ECHCG: barnyardgrass (Echinochloa crus-galli), read-out: Visual Growth Reduction (%) 14 Days After Application, ECHCG
[14] = ORYSA: rice (Oryza sativa), read-out: Visual Growth Reduction (%) 14 Days After Application, ORYSA
[15] = SETFA: giant foxtail (Setaria faberi), read-out: Visual Growth Reduction (%) 14 Days After Application, SETFA
[16] = SORVU: grain sorghum (Sorghum vulgare), read-out: Visual Growth Reduction (%) 14 Days After Application, SORVU
[17] = ZEAMX: maize, corn (Zea mays), read-out: Visual Growth Reduction (%) 14 Days After Application, ZEAMX

SMILES | melting point [°C] | pest or weed control at 140 g/ha [1, 3] [%] | pest or weed control at 140 g/ha [1, 4] [%] | pest or weed control at 140 g/ha [1, 5] [%] | pest or weed control at 140 g/ha [1, 6] [%] | pest or weed control at 140 g/ha [1, 7] [%] | pest or weed control at 140 g/ha [1, 8] [%] | pest or weed control at 140 g/ha [1, 9] [%] | pest or weed control at 140 g/ha [2, 10] [%] | pest or weed control at 140 g/ha [2, 11] [%] | pest or weed control at 140 g/ha [2, 12] [%] | pest or weed control at 140 g/ha [2, 13] [%] | pest or weed control at 140 g/ha [2, 14] [%] | pest or weed control at 140 g/ha [2, 15] [%] | pest or weed control at 140 g/ha [2, 16] [%] | pest or weed control at 140 g/ha [2, 17] [%] | other results
COC(=O)c1nc(-c2ccc(OC(F)F)cc2)c(Cl)c(N)c1Cl [Compound 15] | 102.4 to 103.6 | 85 to 94 | 0 to 29 | 0 to 29 | 30 to 44 | 0 to 29 | 95 to 100 | 0 to 29 | 0 to 29 | 0 to 29 | 0 to 29 | 0 to 29 | 0 to 29 | 0 to 29 | 0 to 29 | 0 to 29 | –
C#Cc1ccc(-c2nc(C(=O)O)c(Cl)c(N)c2C)cc1F [Compound 6, 4-Amino-3-chloro-6-(4-ethynyl-3-fluorophenyl)-5-methylpicolinic acid] | 175 to 176.5 | – | – | – | – | – | – | – | – | – | – | – | – | – | – | – | –
COC(=O)c1nc(-c2cc(F)ccc2F)c(F)c(N)c1Cl [Compound 189] | – | 75 to 84 | 95 to 100 | 60 to 74 | 85 to 94 | 0 to 29 | 85 to 94 | 0 to 29 | 0 to 29 | 0 to 29 | 0 to 29 | – | 0 to 29 | 0 to 29 | 0 to 29 | 0 to 29 | pest or weed control at 70 g/ha [1, 3]: 75 to 84%; pest or weed control at 70 g/ha [1, 4]: 95 to 100%; pest or weed control at 70 g/ha [1, 5]: 45 to 59%; pest or weed control at 70 g/ha [1, 6]: 85 to 94%; pest or weed control at 70 g/ha [1, 7]: 0 to 29%; pest or weed control at 70 g/ha [1, 8]: 85 to 94%; pest or weed control at 70 g/ha [2, 10]: 0 to 29%; pest or weed control at 70 g/ha [2, 11]: 0 to 29%; pest or weed control at 70 g/ha [2, 12]: 0 to 29%; pest or weed control at 70 g/ha [2, 14]: 0 to 29%; pest or weed control at 70 g/ha [2, 15]: 0 to 29%; pest or weed control at 70 g/ha [2, 16]: 0 to 29%; pest or weed control at 70 g/ha [2, 17]: 0 to 29%

Continued, in another order:

melting point [°C] | SMILES | pest or weed control at 140 g/ha [1, 3] [%] | pest or weed control at 140 g/ha [1, 4] [%] | pest or weed control at 140 g/ha [1, 5] [%] | pest or weed control at 140 g/ha [1, 6] [%] | pest or weed control at 140 g/ha [1, 7] [%] | pest or weed control at 140 g/ha [1, 8] [%] | pest or weed control at 140 g/ha [1, 9] [%] | pest or weed control at 140 g/ha [2, 10] [%] | pest or weed control at 140 g/ha [2, 11] [%] | pest or weed control at 140 g/ha [2, 12] [%] | pest or weed control at 140 g/ha [2, 13] [%] | pest or weed control at 140 g/ha [2, 14] [%] | pest or weed control at 140 g/ha [2, 15] [%] | pest or weed control at 140 g/ha [2, 16] [%] | pest or weed control at 140 g/ha [2, 17] [%] | other results
160.9 to 162.6 | C#Cc1ccc(-c2nc(C(=O)O)c(Cl)c(N)c2Cl)cc1 [Compound 153] | 95 to 100 | 95 to 100 | 95 to 100 | 95 to 100 | 0 to 29 | 95 to 100 | 0 to 29 | 60 to 74 | 45 to 59 | 45 to 59 | 0 to 29 | 0 to 29 | 75 to 84 | 0 to 29 | 60 to 74 | –
130 to 132 | COc1c(N)nc(-c2ccccc2)nc1C(=O)O [Compound 207] | – | – | – | – | – | – | – | – | – | – | – | – | – | – | – | –
178.9 to 180.2 | COC(=O)c1nc(-c2ccc(OC(F)(F)F)cc2)c(Cl)c(N)c1Cl [Compound 170] | 0 to 29 | 0 to 29 | 0 to 29 | 60 to 74 | 0 to 29 | 85 to 94 | 0 to 29 | 0 to 29 | 0 to 29 | 0 to 29 | 0 to 29 | 0 to 29 | 0 to 29 | 0 to 29 | 0 to 29 | –
95 to 96 | C=Cc1c(C(=O)OC)nc(-c2ccc(I)cc2)c(F)c1N [Compound 139, methyl 4-amino-5-fluoro-6-(4-iodophenyl)-3-vinylpicolinate] | – | – | – | – | – | – | – | – | – | – | – | – | – | – | – | –
142 to 144 | C=Cc1c(N)nc(-c2ccc(I)cc2)nc1C(=O)OC [Compound 164, methyl 6-amino-2-(4-iodophenyl)-5-vinylpyrimidine-4-carboxylate] | – | – | – | – | – | – | – | – | – | – | – | – | – | – | – | –
